Our source for the IC50 values is patent publication US20130109682A1, “CYCLIC ETHER COMPOUNDS USEFUL AS KINASE INHIBITORS” (NOVARTIS AG, priority 2010, published 2013).

Common to all, as to format: biochemical
For one test, the target named is GSK3β (Homo sapiens, UniProt P49841). Briefly: GSK3β ATP depletion assay. The conditions noted are these: ATP depletion assay; read-out: GSK3b IC50. The procedure, abridged:
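Kinase activity is read as ATP consumption: luciferase luminescence reports the ATP remaining once roughly half of the 2 μM ATP is used. Reaction mix: 5 nM GSK3β, 10 μM b-CREB peptide, 50 mM Tris pH 7.5, 15 mM MgCl2, 1 mM DTT, 0.1% BSA, 2.5% DMSO. Enzyme and peptide are preincubated 15 min before ATP is added.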

For another test, the target named is PDGFRaV561D kinase (Homo sapiens, UniProt P16234, V561D). Briefly: PDGFRaV561D kinase inhibition assay (LanthaScreen TR-FRET). The conditions noted are these: read-out: PDGFRa IC50. The procedure, abridged: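 TR-FRET end-point assay with 4.4 nM PDGFRa V561D kinase, 50 nM polyEAY, 10 mM Mn and 2 μM ATP (f.c.) in Tris pH 7.4 buffer. After 1 h, EDTA stop and Tb-labeled P-20 antibody added; read after 45 min in the dark.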

A further test has as its target PKCα (Homo sapiens, UniProt P17252). Briefly: PKCα kinase Caliper assay. Conditions: PKCα Caliper assay; read-out: PKC IC50. The procedure, abridged: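 Eight-point compound dilutions incubated with PKCα and peptide/ATP for 60 min at 30° C in 50 mM HEPES pH 7.5, 1 mM DTT, 0.02% Tween20, 0.02% BSA, 0.6% DMSO. Activity from phospho-peptide formed, separated by microfluidic mobility shift.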

Structures are written as SMILES.

Chain of PDGFRaV561D kinase (P16234 24-1089 V561D): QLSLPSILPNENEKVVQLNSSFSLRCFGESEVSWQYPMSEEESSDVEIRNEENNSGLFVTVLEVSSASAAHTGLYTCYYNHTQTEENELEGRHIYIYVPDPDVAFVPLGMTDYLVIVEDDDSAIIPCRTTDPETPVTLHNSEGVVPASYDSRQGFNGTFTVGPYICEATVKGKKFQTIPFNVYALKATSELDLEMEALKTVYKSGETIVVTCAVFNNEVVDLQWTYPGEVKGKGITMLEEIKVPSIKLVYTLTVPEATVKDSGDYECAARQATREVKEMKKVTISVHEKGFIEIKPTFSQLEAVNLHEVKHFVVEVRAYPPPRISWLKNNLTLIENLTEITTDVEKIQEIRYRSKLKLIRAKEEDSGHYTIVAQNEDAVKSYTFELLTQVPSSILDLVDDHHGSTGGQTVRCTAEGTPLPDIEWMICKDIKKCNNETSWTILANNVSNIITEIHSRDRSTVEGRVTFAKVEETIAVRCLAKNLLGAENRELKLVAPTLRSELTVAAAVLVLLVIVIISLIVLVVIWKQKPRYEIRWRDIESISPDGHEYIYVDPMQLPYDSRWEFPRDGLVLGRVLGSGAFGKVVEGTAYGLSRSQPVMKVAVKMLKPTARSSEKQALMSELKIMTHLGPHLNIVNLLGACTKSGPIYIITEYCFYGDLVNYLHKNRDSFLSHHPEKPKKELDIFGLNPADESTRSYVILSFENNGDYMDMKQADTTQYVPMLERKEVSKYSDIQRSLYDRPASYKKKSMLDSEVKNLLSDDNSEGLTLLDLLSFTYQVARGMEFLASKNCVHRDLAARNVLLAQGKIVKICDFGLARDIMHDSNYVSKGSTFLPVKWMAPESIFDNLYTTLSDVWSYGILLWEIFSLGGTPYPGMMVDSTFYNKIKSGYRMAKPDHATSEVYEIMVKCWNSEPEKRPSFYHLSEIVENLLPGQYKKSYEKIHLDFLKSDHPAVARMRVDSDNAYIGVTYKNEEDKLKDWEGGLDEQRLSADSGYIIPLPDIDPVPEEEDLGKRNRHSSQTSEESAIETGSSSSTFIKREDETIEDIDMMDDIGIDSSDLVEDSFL
Chain of GSK3β (P49841 whole entry, species assumed): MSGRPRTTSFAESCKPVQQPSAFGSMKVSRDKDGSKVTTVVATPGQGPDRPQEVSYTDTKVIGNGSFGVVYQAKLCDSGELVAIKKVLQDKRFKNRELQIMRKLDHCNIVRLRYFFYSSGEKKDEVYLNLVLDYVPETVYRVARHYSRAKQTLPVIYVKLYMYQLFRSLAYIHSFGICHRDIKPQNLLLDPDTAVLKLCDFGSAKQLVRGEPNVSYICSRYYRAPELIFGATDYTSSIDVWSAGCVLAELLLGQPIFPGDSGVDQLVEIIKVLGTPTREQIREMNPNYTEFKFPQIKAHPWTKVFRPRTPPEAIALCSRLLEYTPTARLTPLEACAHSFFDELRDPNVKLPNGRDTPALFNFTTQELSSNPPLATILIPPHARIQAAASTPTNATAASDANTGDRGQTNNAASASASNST

Consider `CC(C)(C)[C@H]1O[C@@H](c2ccncc2NC(=O)c2nc(-c3ccccc3)cnc2N)C[C@@H](N)[C@@H]1O` [Example 354, 3-amino-N-(4-((2R,4R,5S,6R)-4-amino-6-tert-butyl-5-hydroxytetrahydro-2H-pyran-2-yl)pyridin-3-yl)-6-phenylpyrazine-2-carboxamide], for which the IC50 on GSK3β was determined as 3.2 nM; at PDGFRaV561D kinase it was 26 nM; at PKCα, 22 nM.

Take `CC(C)(C)[C@@H]1O[C@H](c2ccncc2NC(=O)c2nc(-c3ccccc3)cnc2N)C[C@H](N)[C@H]1O` [Example 355, 3-amino-N-(4-((2S,4S,5R,6S)-4-amino-6-tert-butyl-5-hydroxytetrahydro-2H-pyran-2-yl)pyridin-3-yl)-6-phenylpyrazine-2-carboxamide]: the values for the IC50 at GSK3β, on PDGFRaV561D kinase and on PKCα were 170 nM, 9100 nM and 840 nM, respectively.

On to `CC(C)[C@H]1O[C@@H](c2ccncc2NC(=O)c2nc(-c3ccccc3)cnc2N)C[C@@H](N)[C@@H]1O` [Example 356, 3-amino-N-(4-((2R,4R,5S,6R)-4-amino-5-hydroxy-6-isopropyltetrahydro-2H-pyran-2-yl)pyridin-3-yl)-6-phenylpyrazine-2-carboxamide], for which the IC50 is 8.6 nM on GSK3β, 53 nM on PDGFRaV561D kinase and 75 nM at PKCα.
